# Measured values taken from patent publication EP0838474B1, “PEPTIDE THAT INHIBITS BLOOD TRIGLYCERIDE LEVEL RISE AND BLOOD TRIGLYCERIDE LEVEL RISE INHIBITOR CONTAINING SAID PEPTIDE AS ACTIVE INGREDIENT” (MG PHARMA INC., priority 1995, dated 1997).
# Residues, ends and D or L forms follow the SMILES beside them. No end group written: not given here.
# System: TG level in blood
# Assay: Serum TG elevation inhibiting action at the time of in vivo lipid loading (olive oil)
# Set-up: species or system albino mice
# Settings: for Ratio of Increase in Blood TG Levels (%): blood collected after 3 hours; for ID^50: Dose (mg/mouse) exhibiting 50% inhibition: oral, with 250 mg olive oil, blood TG after 3 hours; for Specific Activity: relative to the proteolysate (= 1)
# Experimental: Serum TG elevation inhibiting action at the time of in vivo lipid loading was examined on the three peptides of the invention inhibiting elevations of TG levels in blood (i.e., the peptide having the amino acid sequence of SEQ ID NO: 1 and the peptides Val-Thr-Leu and Val-Tyr-Pro synthesized by the method described in Example 4). Healthy albino mice (5-10 weeks old; body weight: about 20-30 g) were used in this experiment. To each mouse, 250 mg of olive oil and an aqueous solution of the above peptide were administered orally. Three hours thereafter, blood was collected under anesthesia with Nembutal. After separation of the blood, the TG level in blood was determined.
Compound,Ratio of Increase in Blood TG Levels (%) (dose 0.1 mg/mouse oral with 250 mg olive oil),Ratio of Increase in Blood TG Levels (%) (dose 0.2 mg/mouse oral with 250 mg olive oil),Ratio of Increase in Blood TG Levels (%) (dose 1.0 mg/mouse oral with 250 mg olive oil),Ratio of Increase in Blood TG Levels (%) (dose 2.5 mg/mouse oral with 250 mg olive oil),Ratio of Increase in Blood TG Levels (%) (dose 5.0 mg/mouse oral with 250 mg olive oil),ID^50: Dose (mg/mouse) exhibiting 50% inhibition,Specific Activity,Ratio of Increase in Blood TG Levels (%) (dose 1x10^-3 mg/mouse oral with 250 mg olive oil),Ratio of Increase in Blood TG Levels (%) (dose 1x10^-4 mg/mouse oral with 250 mg olive oil),Ratio of Increase in Blood TG Levels (%) (dose 4x10^-4 mg/mouse oral with 250 mg olive oil),Ratio of Increase in Blood TG Levels (%) (dose 4x10^-5 mg/mouse oral with 250 mg olive oil)
"CC(C)C[C@H](NC(=O)[C@@H](NC(=O)[C@@H](N)C(C)C)[C@@H](C)O)C(=O)O [Val-Thr-Leu, H-Val-Thr-Leu-OH] (H-Val-Thr-Leu-OH)",30,33,73,76,79,0.43 mg/mouse,65,–,–,–,–
"LVVYPWT [SEQ ID NO: 1, Leu-Val-Val-Tyr-Pro-Trp-Thr]",–,–,–,–,–,5.6x10^-4 mg/mouse,50000,65,33,33,14
